Test results published in US9108905B2, “TRPA1 antagonists” (AbbVie Inc., priority 2008, dated 2015).

What was measured:
[1] = Pharmacokinetics after oral dose in fasted male Sprague-Dawley rats (plasma and brain); format: in vivo; settings: rat
Method: Groups of three fasted male Sprague-Dawley rats received a 10 μmol/kg ([…]) oral dose of the test compound, administered by gavage. The compounds were prepared as a solution in a 10% DMSO/poly(ethylene glycol)-400 (v/v). Blood samples were obtained from each animal at various time points up to eight hours after dosing.
Test compound was selectively extracted from plasma and brain homogenate using liquid-liquid extraction with tert-butylmethylether. The compounds of interest were separated from co-extracted contaminants on a 50×3 mm, Luna CN column (Phenomenex), with an acetonitrile:0.1% aqueous trifluoroacetic acid mobile phase at a flow rate of 0.35 ml/min. Plasma concentrations were determined by HPLC-MS/MS on an API2000 with Turbo Ion Spray interface, with MRM detection in the positive ionization mode. To calibrate compound concentration, a separate portion of each tissue sample was spiked with a known quantity of test compound and analyzed simultaneously with the samples.

osteoarthritic rats = assay: Effects on hind limb grip force in MIA-induced osteoarthritic rats; format: in vivo
Method: Unilateral knee joint osteoarthritis was induced in the rats by a single intra-articular (i.a.) injection of sodium monoiodoacetate (MIA) (Sigma, St. Louis, Mo.) (3 mg in 0.05 mL sterile isotonic saline) into the joint cavity using a 26G needle under light (2-4%) halothane (Halocarbon Laboratories, River Edge, N.J.) anesthesia. Following injection, the animals were allowed to recover from the effects of anesthesia (usually 5-10 minutes) before returning them to their home cages. Animals were tested 21 days after MIA injection. Measurements of peak hind limb grip force were conducted by recording the maximum compressive force exerted on the hind limb strain gauge setup, in a commercially available grip force
(§1) FIG. 1—depicts the effect of Example 1 on hindlimb grip force in osteoarthritic rats measurement system (Columbus Instruments, Columbus, Ohio). […] During testing, each rat was gently restrained by grasping around its rib cage and then allowed to grasp the wire mesh frame (10-12 cm^2) attached to the strain gauge. The experimenter then moved the animal in a rostral-to-caudal direction until the grip was broken. Each rat was sequentially tested twice at approximately 2-minute interval to obtain a raw mean grip force (CFmax). […] At the 100 μmol/kg dose in the osteoarthritis grip force model, the measured plasma concentration of Example 1 was 6.2 μM.

[2] = Plasma concentration measured in the osteoarthritis grip force model; format: in vivo, rats
Excerpt: as §1, with “(CFmax). This raw mean grip force data was in turn converted to a maximum hind limb compressive force (CFmax) (gram force) per kg body weight for each animal. A group of age matched naïve animals was added to each experiment and the data obtained from the different dose groups for the compound being tested were compared to the naïve group.” for “(CFmax).”

Human TRPA1 = Human TRPA1 (Homo sapiens (Human), UniProt O75762); assay: FLIPR based intracellular Ca2+ assay and membrane potential assay, inhibition of AITC-activated TRPA1; format: cell-based; settings: Table 1, AITC as agonist, HEK293-F cells transiently expressing human TRPA1
Chain of Human TRPA1 (O75762 whole entry): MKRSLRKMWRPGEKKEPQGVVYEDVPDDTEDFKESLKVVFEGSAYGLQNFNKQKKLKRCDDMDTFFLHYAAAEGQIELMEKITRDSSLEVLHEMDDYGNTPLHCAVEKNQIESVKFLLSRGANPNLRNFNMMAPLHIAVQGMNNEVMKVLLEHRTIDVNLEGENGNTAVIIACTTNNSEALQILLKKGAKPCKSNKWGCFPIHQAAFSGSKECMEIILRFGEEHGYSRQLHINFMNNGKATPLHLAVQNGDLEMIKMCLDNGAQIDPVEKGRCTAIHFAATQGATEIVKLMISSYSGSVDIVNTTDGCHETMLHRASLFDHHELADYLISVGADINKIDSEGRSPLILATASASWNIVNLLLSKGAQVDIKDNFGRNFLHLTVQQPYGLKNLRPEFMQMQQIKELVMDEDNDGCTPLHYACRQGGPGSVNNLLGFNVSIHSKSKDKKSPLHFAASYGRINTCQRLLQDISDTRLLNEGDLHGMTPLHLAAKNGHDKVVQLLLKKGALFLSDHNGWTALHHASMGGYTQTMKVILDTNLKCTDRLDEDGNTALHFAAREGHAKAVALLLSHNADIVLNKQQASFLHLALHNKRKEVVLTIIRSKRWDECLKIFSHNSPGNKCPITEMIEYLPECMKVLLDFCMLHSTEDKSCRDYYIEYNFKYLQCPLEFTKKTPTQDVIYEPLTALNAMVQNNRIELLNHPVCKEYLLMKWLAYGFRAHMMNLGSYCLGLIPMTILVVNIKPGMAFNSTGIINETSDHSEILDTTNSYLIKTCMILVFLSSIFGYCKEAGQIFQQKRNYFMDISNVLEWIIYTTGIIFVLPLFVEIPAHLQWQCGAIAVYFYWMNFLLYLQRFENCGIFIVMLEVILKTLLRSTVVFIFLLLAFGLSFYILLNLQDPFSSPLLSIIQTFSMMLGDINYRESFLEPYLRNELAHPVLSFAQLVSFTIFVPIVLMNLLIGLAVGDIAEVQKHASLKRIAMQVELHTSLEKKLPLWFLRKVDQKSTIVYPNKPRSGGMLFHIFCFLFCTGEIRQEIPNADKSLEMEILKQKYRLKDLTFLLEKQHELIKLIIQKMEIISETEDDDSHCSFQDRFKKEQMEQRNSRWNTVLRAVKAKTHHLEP
Method: Molecular biology and transient expression were performed as described in Chen, J. et al., Journal of Biomolecular Screening 2007, 12, 61-69. Briefly, TRPA1 full length cDNA was amplified from human dorsal root ganglia total RNA (BD Bioscience Clontech, Palo Alto, Calif., USA) and was cloned into pcDNA3.1/V5-His Topo vector (Invitrogen, Carlsbad, Calif.). Large scale transient transfection was performed using the FreeStyle™ 293 Expression System as recommended by the manufacturer (Invitrogen). HEK293-F cells were grown in suspension in flasks (cell volume 30 mL to 1 liter) or in a Wave Bioreactor (Wave Biotech, Somerset, N.J.) (6 liters). To support high density, suspension culture and transfection, cells were cultured in FreeStyle 293 media, an optimized, serum free formulation. 293fectin™ (Invitrogen) was used as transfection reagent. In a transfection of 3×10^7 cells (30 mL volume), 30 μg of plasmid DNA and 40 μL 293 fectin were used. For a larger volume transfection, each reagent was scaled up proportionally. Two days post-transfection, cells were harvested by centrifugation (1000×g, 5 minutes) and resuspended to a density of 1.5×10^7 cells/mL in freezing medium (Freestyle media/10% serum/10% DMSO). Cells were transferred into cryovials in 2 mL aliquots, and these vials were placed in Nalgene Mr. Frosty slow-freeze devices (Sigma-Aldrich, St. Louis, Mo.) at −80° C. As needed, vials were removed from −80° C. and quickly thawed in a 37° C. water bath. Cells were aseptically transferred into conical tubes containing Freestyle media (10 mL/vial). After centrifugation at 1,000×g for 3-5 minutes, medium was removed by aspiration and cells were resuspended in Freestyle medium at desired densities (typically 1×10^6 cells/mL). Re-suspended cells were seeded into black-walled clear-bottom 96-well Biocoat™ poly-D-lysine assay plates (BD Biosciences, Bedford, Mass.)(10^5 cells/well) and incubated overnight at 37° C. under a humidified 5% CO2 atmosphere.
FLIPR Based Intracellular Ca^2+ Assay and Membrane Potential Assay
Ca^2+ influx was measured using a FLIPR calcium assay kit (R8033; Molecular Devices, Sunnyvale, Calif.). The Ca^2+ indicator dye was dissolved in Hanks' balanced salt solution supplemented with 20 mM HEPES buffer (HBSS/HEPES) according to the manufacturer instructions. […] (4×) solutions of the test compounds were prepared in HBSS/HEPES, and 50 μL were added to the cells at a delivery rate of 10 μL/sec. Changes in fluorescence were measured over time in a fluorometric imaging plate reader (FLIPR, Molecular Devices). Two additions were made over the course of an experimental run. For agonist experiments, assay buffer was added at the 10 s time point, followed by addition of agonist at the 3 minute 10 sec time point. For antagonist experiments, the antagonist was added at the 10 sec time point, followed by addition of the agonist 3 minutes later. Final assay volume for both the agonist and antagonist experiments was 200 μL. Total length of an experimental run was 6.5 minutes.
Data was analyzed with GraphPad Prism® software (GraphPad Software, San Diego, Calif.), using a four-parameter logistic Hill equation to curve-fit concentration-effect data and derive EC50 or IC50 values. Numerical values are reported as mean±SEM (n=number of experiments). SEM is calculated by dividing the standard deviation by the square root of the sample size […].
Changes in membrane potential were measured in hTRPA1-expressing LSTT cells using a FLIPR membrane potential assay kit (R8034, Molecular Devices). The procedure for thawing and plating the LSTT cells was identical to the Ca^2+ influx assay (see above). The membrane potential dye was dissolved in HBSS/HEPES buffer according to the manufacturer's instructions, and then cells were loaded with dye (100 μL/well) for 45 minutes to 2 hours at room temperature.

Row | Compound | IC50 (Human TRPA1) | further results
1 | CCC(=N\O)/C(C)=C/c1ccc(F)cc1 [Example 1, (1E,3E)-1-(4-fluorophenyl)-2-methylpent-1-en-3-one oxime] | – | Cmax ([1]; 10 umol/kg, oral, plasma): 720 nM; Kp ([1]; brain and plasma, 10 μmol/kg, after oral administration, text calls it brain/plasma ratio): 1.2; bioavailability ([1]; plasma, 10 umol/kg, oral gavage, solution in 10% DMSO/PEG-400): 38%; ED50 (osteoarthritic rats; Rattus norvegicus, po, 21 days after MIA injection, 95% CI 79-158 μmol/kg, read-out: ED50, hindlimb grip force): 112 µmol/kg; efficacy in osteoarthritis grip force model (osteoarthritic rats; p.o.): fully efficacious; measured plasma concentration ([2]; 100 μmol/kg oral dose, osteoarthritis grip force model): 6.2 µM; plasma and brain exposure ([2]; with increasing oral dose, rat): excellent plasma and brain exposure
2 | CCC(=N\O)/C(C)=C/c1ccccc1F [Example 3, (1E,3E)-1-(2-fluorophenyl)-2-methylpent-1-en-3-one oxime] | 4.6 µM | –
3 | CCCC(=N\O)/C(C)=C/c1ccc(F)cc1 [Example 4, (1E,3E)-1-(4-fluorophenyl)-2-methylhex-1-en-3-one oxime] | 0.5 µM | –
4 | CC(=C\c1ccc(F)cc1)/C(=N/O)C(C)(C)C [Example 5, (1E,3E)-1-(4-fluorophenyl)-2,4,4-trimethylpent-1-en-3-one oxime] | 8 µM | –
5 | CCCCC(=N\O)/C(C)=C/c1ccc(F)cc1 [Example 6, (1E,3E)-1-(4-fluorophenyl)-2-methylhept-1-en-3-one oxime] | 4.4 µM | –
6 | CC(=C\c1ccc(F)cc1)/C(=N\O)C(C)C [Example 7, (1E,3Z)-1-(4-fluorophenyl)-2,4-dimethylpent-1-en-3-one oxime] | 0.85 µM | –
7 | CC(=C\c1ccc(F)cc1)/C(=N/O)C(C)C [Example 8, (1E,3E)-1-(4-fluorophenyl)-2,4-dimethylpent-1-en-3-one oxime] | 3.3 µM | –
8 | CCC(=N\O)/C(C)=C/c1ccc(F)c(Cl)c1 [Example 9, (1E,3E)-1-(3-chloro-4-fluorophenyl)-2-methylpent-1-en-3-one oxime] | 6 µM | –
9 | CC(/C=C/c1ccc(F)cc1)=N\O [Example 11, (2E,3E)-4-(4-fluorophenyl)but-3-en-2-one oxime] | 20.6 µM | –
10 | CCCC(/C=C/c1ccc(F)cc1)=N\O [Example 12, (1E,3E)-1-(4-fluorophenyl)hex-1-en-3-one oxime] | 5.91 µM | –

Further lines, with some results ahead:

Row | IC50 (Human TRPA1) | Compound | further results
11 | 0.574 µM | CCC(=N\O)/C(C)=C/c1ccc(F)c(F)c1 [Example 14, (1E,3E)-1-(3,4-difluorophenyl)-2-methylpent-1-en-3-one oxime] | –
12 | 4.67 µM | CCC(=N\O)/C(C)=C/c1cc(F)c(F)c(F)c1 [Example 15, (1E,3E)-2-methyl-1-(3,4,5-trifluorophenyl)pent-1-en-3-one oxime] | –
13 | > 100 µM | CCCCC(/C=C/c1ccc(F)cc1)=N\O [Example 16, (1E,3E)-1-(4-fluorophenyl)hept-1-en-3-one oxime] | –
14 | > 100 µM | CCC(=N\O)/C(C)=C/c1ccc(F)c(C)c1 [Example 17, (1E,3E)-1-(4-fluoro-3-methylphenyl)-2-methylpent-1-en-3-one oxime] | –
15 | > 100 µM | CCC(=N\O)/C(C)=C/c1ccc(F)c(C(F)(F)F)c1 [Example 18, (1E,3E)-1-[4-fluoro-3-(trifluoromethyl)phenyl]-2-methylpent-1-en-3-one oxime] | –
16 | 9.46 µM | (1E,3E)-1-(4-fluorophenyl)pent-1-en-3-one oxime and (1E,3Z)-1-(4-fluorophenyl)pent-1-en-3-one oxime, about 1:1 mixture [Example 13] | –
